According to PubChem BioAssay AID2060599 (Molecular Pharmacology Branch, DTP, NCI, 2025):

tested on: 817829-284-R-J1-PDC complex spheroids, viability; assay: Anticancer human tumor 817829-284-R-J1-PDC patient-derived colon adenocarcinoma cell line growth inhibition [CLK]; details: second compound 0.0316 µM; first compound 1 µM; active compounds read low
Method in brief: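 Multi-cell-type spheroids combined patient-derived tumor cells with HUVEC endothelial cells and human mesenchymal stem cells. Paired agents were dosed in half-log steps down from about clinical Cmax, or from 10 microM where Cmax was unknown.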
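Note: spheroids exposed to the agents for seven days before readout.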

Structure (SMILES)	viability, T/C [%]
CCN1CCN(Cc2ccc(Nc3ncc(F)c(-c4cc(F)c5nc(C)n(C(C)C)c5c4)n3)nc2)CC1 + CN1CCN(c2cc(C(=O)Nc3cc4cc(-c5cnn(C)c5)ccc4cn3)ccn2)CC1	29.2
COc1c(OCCCN2CCOCC2)ccc2c3n(c(=NC(=O)c4cnc(N)nc4)nc12)CCN3 + CN1CCN(c2cc(C(=O)Nc3cc4cc(-c5cnn(C)c5)ccc4cn3)ccn2)CC1	1.54

same assay, conditions: second compound 0.0316 µM; first compound 3.16 µM; active compounds read low

Structure (SMILES)	viability, T/C [%]
C#Cc1c(F)ccc2cc(O)cc(-c3ncc4c(N5CC6CCC(C5)N6)nc(OCC56CCCN5CC(F)C6)nc4c3F)c12 (stereo not drawn) + CN1CCN(c2cc(C(=O)Nc3cc4cc(-c5cnn(C)c5)ccc4cn3)ccn2)CC1	57.3
CC(CO)NC(=O)c1cc(-c2ccc(Cl)cc2)nn(-c2cnn(C)c2)c1=O (stereo not drawn) + CN1CCN(c2cc(C(=O)Nc3cc4cc(-c5cnn(C)c5)ccc4cn3)ccn2)CC1	53.1
CC(Nc1ccc2c(c1)OCCn1cc(N3C(=O)OCC3C(F)F)nc1-2)C(N)=O (stereo not drawn) + CN1CCN(c2cc(C(=O)Nc3cc4cc(-c5cnn(C)c5)ccc4cn3)ccn2)CC1	51.4

same assay, conditions: second compound 0.0316 µM; first compound 10 µM; active compounds read low

Structure (SMILES)	viability, T/C [%]
C#Cc1c(F)ccc2cc(O)cc(-c3ncc4c(N5CC6CCC(C5)N6)nc(OCC56CCCN5CC(F)C6)nc4c3F)c12 (stereo not drawn) + CN1CCN(c2cc(C(=O)Nc3cc4cc(-c5cnn(C)c5)ccc4cn3)ccn2)CC1	40.5
CC(CO)NC(=O)c1cc(-c2ccc(Cl)cc2)nn(-c2cnn(C)c2)c1=O (stereo not drawn) + CN1CCN(c2cc(C(=O)Nc3cc4cc(-c5cnn(C)c5)ccc4cn3)ccn2)CC1	33
CC(Nc1ccc2c(c1)OCCn1cc(N3C(=O)OCC3C(F)F)nc1-2)C(N)=O (stereo not drawn) + CN1CCN(c2cc(C(=O)Nc3cc4cc(-c5cnn(C)c5)ccc4cn3)ccn2)CC1	22.9

same assay, conditions: second compound 0.1 µM; first compound 0.00316 µM; active compounds read low

Structure (SMILES)	viability, T/C [%]
CCN1CCN(Cc2ccc(Nc3ncc(F)c(-c4cc(F)c5nc(C)n(C(C)C)c5c4)n3)nc2)CC1 + CN1CCN(c2cc(C(=O)Nc3cc4cc(-c5cnn(C)c5)ccc4cn3)ccn2)CC1	17.4
COc1c(OCCCN2CCOCC2)ccc2c3n(c(=NC(=O)c4cnc(N)nc4)nc12)CCN3 + CN1CCN(c2cc(C(=O)Nc3cc4cc(-c5cnn(C)c5)ccc4cn3)ccn2)CC1	20.9

same assay, conditions: second compound 0.1 µM; first compound 0.01 µM; active compounds read low

Structure (SMILES)	viability, T/C [%]
CCN1CCN(Cc2ccc(Nc3ncc(F)c(-c4cc(F)c5nc(C)n(C(C)C)c5c4)n3)nc2)CC1 + CN1CCN(c2cc(C(=O)Nc3cc4cc(-c5cnn(C)c5)ccc4cn3)ccn2)CC1	16.2
COc1c(OCCCN2CCOCC2)ccc2c3n(c(=NC(=O)c4cnc(N)nc4)nc12)CCN3 + CN1CCN(c2cc(C(=O)Nc3cc4cc(-c5cnn(C)c5)ccc4cn3)ccn2)CC1	17.7

same assay, conditions: second compound 0.1 µM; first compound 0.0316 µM; active compounds read low

Structure (SMILES)	viability, T/C [%]
C#Cc1c(F)ccc2cc(O)cc(-c3ncc4c(N5CC6CCC(C5)N6)nc(OCC56CCCN5CC(F)C6)nc4c3F)c12 (stereo not drawn) + CN1CCN(c2cc(C(=O)Nc3cc4cc(-c5cnn(C)c5)ccc4cn3)ccn2)CC1	24.2
CC(CO)NC(=O)c1cc(-c2ccc(Cl)cc2)nn(-c2cnn(C)c2)c1=O (stereo not drawn) + CN1CCN(c2cc(C(=O)Nc3cc4cc(-c5cnn(C)c5)ccc4cn3)ccn2)CC1	18.3
CC(Nc1ccc2c(c1)OCCn1cc(N3C(=O)OCC3C(F)F)nc1-2)C(N)=O (stereo not drawn) + CN1CCN(c2cc(C(=O)Nc3cc4cc(-c5cnn(C)c5)ccc4cn3)ccn2)CC1	20.4
CCN1CCN(Cc2ccc(Nc3ncc(F)c(-c4cc(F)c5nc(C)n(C(C)C)c5c4)n3)nc2)CC1 + CN1CCN(c2cc(C(=O)Nc3cc4cc(-c5cnn(C)c5)ccc4cn3)ccn2)CC1	15.4
COc1c(OCCCN2CCOCC2)ccc2c3n(c(=NC(=O)c4cnc(N)nc4)nc12)CCN3 + CN1CCN(c2cc(C(=O)Nc3cc4cc(-c5cnn(C)c5)ccc4cn3)ccn2)CC1	11.5

same assay, conditions: second compound 0.1 µM; first compound 0.1 µM; active compounds read low

Structure (SMILES)	viability, T/C [%]
C#Cc1c(F)ccc2cc(O)cc(-c3ncc4c(N5CC6CCC(C5)N6)nc(OCC56CCCN5CC(F)C6)nc4c3F)c12 (stereo not drawn) + CN1CCN(c2cc(C(=O)Nc3cc4cc(-c5cnn(C)c5)ccc4cn3)ccn2)CC1	19.4
CC(CO)NC(=O)c1cc(-c2ccc(Cl)cc2)nn(-c2cnn(C)c2)c1=O (stereo not drawn) + CN1CCN(c2cc(C(=O)Nc3cc4cc(-c5cnn(C)c5)ccc4cn3)ccn2)CC1	15.8
CC(Nc1ccc2c(c1)OCCn1cc(N3C(=O)OCC3C(F)F)nc1-2)C(N)=O (stereo not drawn) + CN1CCN(c2cc(C(=O)Nc3cc4cc(-c5cnn(C)c5)ccc4cn3)ccn2)CC1	19.2
CCN1CCN(Cc2ccc(Nc3ncc(F)c(-c4cc(F)c5nc(C)n(C(C)C)c5c4)n3)nc2)CC1 + CN1CCN(c2cc(C(=O)Nc3cc4cc(-c5cnn(C)c5)ccc4cn3)ccn2)CC1	20.7
COc1c(OCCCN2CCOCC2)ccc2c3n(c(=NC(=O)c4cnc(N)nc4)nc12)CCN3 + CN1CCN(c2cc(C(=O)Nc3cc4cc(-c5cnn(C)c5)ccc4cn3)ccn2)CC1	6.91

same assay, conditions: second compound 0.1 µM; first compound 0.316 µM; active compounds read low

Structure (SMILES)	viability, T/C [%]
C#Cc1c(F)ccc2cc(O)cc(-c3ncc4c(N5CC6CCC(C5)N6)nc(OCC56CCCN5CC(F)C6)nc4c3F)c12 (stereo not drawn) + CN1CCN(c2cc(C(=O)Nc3cc4cc(-c5cnn(C)c5)ccc4cn3)ccn2)CC1	19.8
CC(CO)NC(=O)c1cc(-c2ccc(Cl)cc2)nn(-c2cnn(C)c2)c1=O (stereo not drawn) + CN1CCN(c2cc(C(=O)Nc3cc4cc(-c5cnn(C)c5)ccc4cn3)ccn2)CC1	16.9
CC(Nc1ccc2c(c1)OCCn1cc(N3C(=O)OCC3C(F)F)nc1-2)C(N)=O (stereo not drawn) + CN1CCN(c2cc(C(=O)Nc3cc4cc(-c5cnn(C)c5)ccc4cn3)ccn2)CC1	17
CCN1CCN(Cc2ccc(Nc3ncc(F)c(-c4cc(F)c5nc(C)n(C(C)C)c5c4)n3)nc2)CC1 + CN1CCN(c2cc(C(=O)Nc3cc4cc(-c5cnn(C)c5)ccc4cn3)ccn2)CC1	18.7
COc1c(OCCCN2CCOCC2)ccc2c3n(c(=NC(=O)c4cnc(N)nc4)nc12)CCN3 + CN1CCN(c2cc(C(=O)Nc3cc4cc(-c5cnn(C)c5)ccc4cn3)ccn2)CC1	1.95

same assay, conditions: second compound 0.1 µM; first compound 1 µM; active compounds read low

Structure (SMILES)	viability, T/C [%]
C#Cc1c(F)ccc2cc(O)cc(-c3ncc4c(N5CC6CCC(C5)N6)nc(OCC56CCCN5CC(F)C6)nc4c3F)c12 (stereo not drawn) + CN1CCN(c2cc(C(=O)Nc3cc4cc(-c5cnn(C)c5)ccc4cn3)ccn2)CC1	17.4
CC(CO)NC(=O)c1cc(-c2ccc(Cl)cc2)nn(-c2cnn(C)c2)c1=O (stereo not drawn) + CN1CCN(c2cc(C(=O)Nc3cc4cc(-c5cnn(C)c5)ccc4cn3)ccn2)CC1	15.6
CC(Nc1ccc2c(c1)OCCn1cc(N3C(=O)OCC3C(F)F)nc1-2)C(N)=O (stereo not drawn) + CN1CCN(c2cc(C(=O)Nc3cc4cc(-c5cnn(C)c5)ccc4cn3)ccn2)CC1	16.8
CCN1CCN(Cc2ccc(Nc3ncc(F)c(-c4cc(F)c5nc(C)n(C(C)C)c5c4)n3)nc2)CC1 + CN1CCN(c2cc(C(=O)Nc3cc4cc(-c5cnn(C)c5)ccc4cn3)ccn2)CC1	11.8
COc1c(OCCCN2CCOCC2)ccc2c3n(c(=NC(=O)c4cnc(N)nc4)nc12)CCN3 + CN1CCN(c2cc(C(=O)Nc3cc4cc(-c5cnn(C)c5)ccc4cn3)ccn2)CC1	1.19

same assay, conditions: second compound 0.1 µM; first compound 3.16 µM; active compounds read low

Structure (SMILES)	viability, T/C [%]
C#Cc1c(F)ccc2cc(O)cc(-c3ncc4c(N5CC6CCC(C5)N6)nc(OCC56CCCN5CC(F)C6)nc4c3F)c12 (stereo not drawn) + CN1CCN(c2cc(C(=O)Nc3cc4cc(-c5cnn(C)c5)ccc4cn3)ccn2)CC1	15.2
CC(CO)NC(=O)c1cc(-c2ccc(Cl)cc2)nn(-c2cnn(C)c2)c1=O (stereo not drawn) + CN1CCN(c2cc(C(=O)Nc3cc4cc(-c5cnn(C)c5)ccc4cn3)ccn2)CC1	15.4
CC(Nc1ccc2c(c1)OCCn1cc(N3C(=O)OCC3C(F)F)nc1-2)C(N)=O (stereo not drawn) + CN1CCN(c2cc(C(=O)Nc3cc4cc(-c5cnn(C)c5)ccc4cn3)ccn2)CC1	14.3

same assay, conditions: second compound 0.1 µM; first compound 10 µM; active compounds read low

Structure (SMILES)	viability, T/C [%]
C#Cc1c(F)ccc2cc(O)cc(-c3ncc4c(N5CC6CCC(C5)N6)nc(OCC56CCCN5CC(F)C6)nc4c3F)c12 (stereo not drawn) + CN1CCN(c2cc(C(=O)Nc3cc4cc(-c5cnn(C)c5)ccc4cn3)ccn2)CC1	11.8
CC(CO)NC(=O)c1cc(-c2ccc(Cl)cc2)nn(-c2cnn(C)c2)c1=O (stereo not drawn) + CN1CCN(c2cc(C(=O)Nc3cc4cc(-c5cnn(C)c5)ccc4cn3)ccn2)CC1	14.6
CC(Nc1ccc2c(c1)OCCn1cc(N3C(=O)OCC3C(F)F)nc1-2)C(N)=O (stereo not drawn) + CN1CCN(c2cc(C(=O)Nc3cc4cc(-c5cnn(C)c5)ccc4cn3)ccn2)CC1	10.7

same assay, conditions: second compound 0.316 µM; first compound 0.00316 µM; active compounds read low

Structure (SMILES)	viability, T/C [%]
CCN1CCN(Cc2ccc(Nc3ncc(F)c(-c4cc(F)c5nc(C)n(C(C)C)c5c4)n3)nc2)CC1 + CN1CCN(c2cc(C(=O)Nc3cc4cc(-c5cnn(C)c5)ccc4cn3)ccn2)CC1	1.34
COc1c(OCCCN2CCOCC2)ccc2c3n(c(=NC(=O)c4cnc(N)nc4)nc12)CCN3 + CN1CCN(c2cc(C(=O)Nc3cc4cc(-c5cnn(C)c5)ccc4cn3)ccn2)CC1	1.52

same assay, conditions: second compound 0.316 µM; first compound 0.01 µM; active compounds read low

Structure (SMILES)	viability, T/C [%]
CCN1CCN(Cc2ccc(Nc3ncc(F)c(-c4cc(F)c5nc(C)n(C(C)C)c5c4)n3)nc2)CC1 + CN1CCN(c2cc(C(=O)Nc3cc4cc(-c5cnn(C)c5)ccc4cn3)ccn2)CC1	1.6
COc1c(OCCCN2CCOCC2)ccc2c3n(c(=NC(=O)c4cnc(N)nc4)nc12)CCN3 + CN1CCN(c2cc(C(=O)Nc3cc4cc(-c5cnn(C)c5)ccc4cn3)ccn2)CC1	1.2

same assay, conditions: second compound 0.316 µM; first compound 0.0316 µM; active compounds read low

Structure (SMILES)	viability, T/C [%]
C#Cc1c(F)ccc2cc(O)cc(-c3ncc4c(N5CC6CCC(C5)N6)nc(OCC56CCCN5CC(F)C6)nc4c3F)c12 (stereo not drawn) + CN1CCN(c2cc(C(=O)Nc3cc4cc(-c5cnn(C)c5)ccc4cn3)ccn2)CC1	2.71
CC(CO)NC(=O)c1cc(-c2ccc(Cl)cc2)nn(-c2cnn(C)c2)c1=O (stereo not drawn) + CN1CCN(c2cc(C(=O)Nc3cc4cc(-c5cnn(C)c5)ccc4cn3)ccn2)CC1	2.63
CC(Nc1ccc2c(c1)OCCn1cc(N3C(=O)OCC3C(F)F)nc1-2)C(N)=O (stereo not drawn) + CN1CCN(c2cc(C(=O)Nc3cc4cc(-c5cnn(C)c5)ccc4cn3)ccn2)CC1	1.57
CCN1CCN(Cc2ccc(Nc3ncc(F)c(-c4cc(F)c5nc(C)n(C(C)C)c5c4)n3)nc2)CC1 + CN1CCN(c2cc(C(=O)Nc3cc4cc(-c5cnn(C)c5)ccc4cn3)ccn2)CC1	1.6
COc1c(OCCCN2CCOCC2)ccc2c3n(c(=NC(=O)c4cnc(N)nc4)nc12)CCN3 + CN1CCN(c2cc(C(=O)Nc3cc4cc(-c5cnn(C)c5)ccc4cn3)ccn2)CC1	0.85

same assay, conditions: second compound 0.316 µM; first compound 0.1 µM; active compounds read low

Structure (SMILES)	viability, T/C [%]
C#Cc1c(F)ccc2cc(O)cc(-c3ncc4c(N5CC6CCC(C5)N6)nc(OCC56CCCN5CC(F)C6)nc4c3F)c12 (stereo not drawn) + CN1CCN(c2cc(C(=O)Nc3cc4cc(-c5cnn(C)c5)ccc4cn3)ccn2)CC1	2.39
CC(CO)NC(=O)c1cc(-c2ccc(Cl)cc2)nn(-c2cnn(C)c2)c1=O (stereo not drawn) + CN1CCN(c2cc(C(=O)Nc3cc4cc(-c5cnn(C)c5)ccc4cn3)ccn2)CC1	2.2
CC(Nc1ccc2c(c1)OCCn1cc(N3C(=O)OCC3C(F)F)nc1-2)C(N)=O (stereo not drawn) + CN1CCN(c2cc(C(=O)Nc3cc4cc(-c5cnn(C)c5)ccc4cn3)ccn2)CC1	1.34
CCN1CCN(Cc2ccc(Nc3ncc(F)c(-c4cc(F)c5nc(C)n(C(C)C)c5c4)n3)nc2)CC1 + CN1CCN(c2cc(C(=O)Nc3cc4cc(-c5cnn(C)c5)ccc4cn3)ccn2)CC1	1.6
COc1c(OCCCN2CCOCC2)ccc2c3n(c(=NC(=O)c4cnc(N)nc4)nc12)CCN3 + CN1CCN(c2cc(C(=O)Nc3cc4cc(-c5cnn(C)c5)ccc4cn3)ccn2)CC1	0.73

same assay, conditions: second compound 0.316 µM; first compound 0.316 µM; active compounds read low

Structure (SMILES)	viability, T/C [%]
C#Cc1c(F)ccc2cc(O)cc(-c3ncc4c(N5CC6CCC(C5)N6)nc(OCC56CCCN5CC(F)C6)nc4c3F)c12 (stereo not drawn) + CN1CCN(c2cc(C(=O)Nc3cc4cc(-c5cnn(C)c5)ccc4cn3)ccn2)CC1	2.14
